Experimental findings from ChEMBL document CHEMBL4002636, “Alkaloids from the mangrove endophytic fungus Diaporthe phaseolorum SKS019” (Bioorg Med Chem Lett, 2017) are described below.

A word on the IC50: it is the concentration that gives 50% inhibition.

Activity calls are given as the source filed them. The rule behind the calls is not given here.

Test [1] has as its system MDA-MB-435. The test is described as follows: Cytotoxicity against human MDA-MB-435 cells assessed as growth inhibition at 50 uM after 48 hrs by MTT assay. Format: functional, cell-based. For orientation: Tetrazolium assays rely on reduction of a dye to a coloured formazan, in cell work by metabolically active cells.
For another test, the system named is MCF-10A. The test is described as follows: Cytotoxicity against human MCF10A cells assessed as growth inhibition after 48 hrs by MTT assay. Format: cell-based.
Test [2] has as its system NCI-H460. The test is described as follows: Cytotoxicity against human NCI-H460 cells assessed as growth inhibition at 50 uM after 48 hrs by MTT assay. Format: functional, cell-based.
Test [3] deals with HepG2. The test can be described thus: Cytotoxicity against human HepG2 cells assessed as growth inhibition after 48 hrs by MTT assay. Format: functional, cell-based. The conditions noted are these: HepG2, 48 h.
The test system of test [4] is HCT-116. The test can be described thus: Cytotoxicity against human HCT116 cells assessed as growth inhibition after 48 hrs by MTT assay. The conditions noted are these: HCT-116, 48 h. Format: functional, cell-based.
Test [5] deals with MDA-MB-435. The test can be described thus: Cytotoxicity against human MDA-MB-435 cells assessed as growth inhibition after 48 hrs by MTT assay. Format: functional, cell-based. The conditions noted are these: MDA-MB-435, 48 h.
The subject of test [6] is NCI-H460. The test can be described thus: Cytotoxicity against human NCI-H460 cells assessed as growth inhibition after 48 hrs by MTT assay. Format: functional, cell-based. The conditions noted are these: NCI-H460, 48 h.
The subject of test [7] is HCT-116. The test can be described thus: Cytotoxicity against human HCT116 cells assessed as growth inhibition at 50 uM after 48 hrs by MTT assay. Format: functional, cell-based.
For test [8], the system named is HepG2. The test can be described thus: Cytotoxicity against human HepG2 cells assessed as growth inhibition at 50 uM after 48 hrs by MTT assay. Format: functional, cell-based.

With `O=C(O)CCCCN1Cc2c(O)cc(O)cc2C1=O`, the “growth inhibition (GI)” value with MDA-MB-435 [1], in the test on NCI-H460 [2], in the test on HCT-116 [7] and with HepG2 [8] was “inactive” in each case. Also, the IC50 with MCF-10A, in the test on HepG2 [3], with HCT-116 [4], with MDA-MB-435 [5] and in the test on NCI-H460 [6] was greater than 50 µM each time.
`COC(=O)c1cc(OC)cc2oc3cc(C)ncc3c(=O)c12`: the “growth inhibition (GI)” value in the test with MDA-MB-435 [1], with NCI-H460 [2], in the test on HCT-116 [7] and with HepG2 [8] was “inactive” each time. Moreover, the IC50 in the test with MCF-10A, in the test with HepG2 [3], in the test on HCT-116 [4], with MDA-MB-435 [5] and in the test with NCI-H460 [6] was greater than 50 µM throughout.
In the case of `COC(=O)c1cc(OC)c(OC(C)=O)c2oc3cc(C)ncc3c(=O)c12`, the “growth inhibition (GI)” value in the test on MDA-MB-435 [1], in the test on NCI-H460 [2], with HCT-116 [7] and in the test with HepG2 [8] was “inactive” in each case. In addition, the IC50 with MCF-10A, in the test on HepG2 [3], in the test with HCT-116 [4], in the test with MDA-MB-435 [5] and in the test with NCI-H460 [6] was greater than 50 µM each time.
As to `COc1cc(O)c2c(c1)C(=O)c1cc(C)ncc1C2=O`, the IC50 in the test on MCF-10A was 9.31 µM; in the test with HepG2 [3] it was greater than 50 µM; in the test on HCT-116 [4], 34.8 µM; in the test with MDA-MB-435 [5] it was 5.32 µM; with NCI-H460 [6], 6.57 µM.
As to `COC(=O)CCCCN1Cc2c(O)cc(O)cc2C1=O`, the “growth inhibition (GI)” value with MDA-MB-435 [1], in the test on NCI-H460 [2], with HCT-116 [7] and with HepG2 [8] was “inactive” throughout. The IC50 in the test with MCF-10A, with HepG2 [3], with HCT-116 [4], with MDA-MB-435 [5] and in the test with NCI-H460 [6] was greater than 50 µM in each case.
Take `COc1cccc2c1C(=O)c1c(O)c3c(c(O)c1C2=O)C[C@@](O)(C(=O)CO)C[C@@H]3O[C@H]1C[C@H](N)[C@@H](O)[C@H](C)O1` [EPIRUBICIN]: the half-inhibitory concentration (IC50) came out at 0.13 µM with MCF-10A; 0.32 µM in the test with HepG2 [3]; 0.37 µM with HCT-116 [4]; 0.26 µM with MDA-MB-435 [5]; 0.12 µM with NCI-H460 [6].
As to `COC(=O)c1cc(O)cc2oc3cc(CO)ncc3c(=O)c12`, the “growth inhibition (GI)” value in the test with MDA-MB-435 [1], with NCI-H460 [2], with HCT-116 [7] and with HepG2 [8] was “inactive” throughout. Also, the IC50 with MCF-10A, with HepG2 [3], in the test with HCT-116 [4], in the test on MDA-MB-435 [5] and in the test with NCI-H460 [6] was greater than 50 µM in each case.
For the molecule `COC(=O)c1cc(OC)c(OC)c2oc3cc(C)ncc3c(=O)c12`, the “growth inhibition (GI)” value with MDA-MB-435 [1], in the test with NCI-H460 [2], in the test with HCT-116 [7] and with HepG2 [8] was “inactive” throughout. The IC50 with MCF-10A, in the test on HepG2 [3], with HCT-116 [4], in the test on MDA-MB-435 [5] and in the test on NCI-H460 [6] was greater than 50 µM each time.
As for `O=C1c2cc(O)cc(O)c2CN1CCO`, the “growth inhibition (GI)” value in the test on MDA-MB-435 [1], in the test with NCI-H460 [2], in the test on HCT-116 [7] and in the test with HepG2 [8] was “inactive” in each case. Further, the IC50 in the test on MCF-10A, with HepG2 [3], with HCT-116 [4], in the test with MDA-MB-435 [5] and in the test with NCI-H460 [6] was greater than 50 µM in each case.
